Experimental data: ChEMBL document CHEMBL3870329, “Synthesis of peptide nucleic acids (PNA) with a crosslinking agent to RNA and effective inhibition of dicer” (Bioorg Med Chem Lett, 2016)
Activity calls are given as the source filed them. The rule behind the calls is not given here.

Legend:
[1] = test system: Nucleic Acid; test: Binding affinity to synthetic 5'-FAM-labelled pre-miR-122 RNA site3 (unknown origin) assessed as inhibition of human dicer-mediated digestion of pre-miR-122 RNA by measuring heteroduplex formation preincubated with RNA for 2 days followed by dicer addition measured after 2 hrs by denaturing PAGE analysis relative to control; type: nucleic-acid assay; conditions: concentration not given here
[2] = test system: Nucleic Acid; test: Binding affinity to synthetic 5'-FAM-labelled pre-miR-122 RNA site3 (unknown origin) assessed as heteroduplex formation at 4 uM measured after 2 hrs by denaturing PAGE analysis relative to control; type: nucleic-acid assay
[3] = test system: Nucleic Acid; test: Binding affinity to synthetic 5'-fluorescein-labelled pre-miR-122 RNA site3 (unknown origin) assessed as heteroduplex formation at 4 uM measured after 48 hrs by non-denaturing PAGE analysis relative to control; type: nucleic-acid assay
[4] = test system: Nucleic Acid; test: Binding affinity to synthetic 5'-FAM-labelled pre-miR-122 RNA site3 (unknown origin) assessed as human dicer-mediated digestion of pre-miR-122 RNA preincubated with RNA for 2 days followed by dicer addition measured after 2 hrs by denaturing PAGE analysis; type: nucleic-acid assay
[5] = test system: Nucleic Acid; test: Binding affinity to synthetic 5'-FAM-labelled pre-miR-122 RNA site1 (unknown origin) assessed as human dicer-mediated digestion of pre-miR-122 RNA preincubated with RNA for 2 days followed by dicer addition measured after 2 hrs by denaturing PAGE analysis; type: nucleic-acid assay
[6] = test system: Nucleic Acid; test: Binding affinity to synthetic 5'-FAM-labelled pre-miR-122 RNA site1 (unknown origin) assessed as inhibition of human dicer-mediated digestion of pre-miR-122 RNA preincubated with RNA for 2 days followed by dicer addition measured after 2 hrs by denaturing PAGE analysis relative to control; type: nucleic-acid assay; conditions: concentration not given here
[7] = test system: Nucleic Acid; test: Binding affinity to synthetic 5'-FAM-labelled pre-miR-122 RNA site1 (unknown origin) assessed as heteroduplex formation at 4 uM measured after 2 hrs by denaturing PAGE analysis relative to control; type: nucleic-acid assay
[8] = test system: Nucleic Acid; test: Binding affinity to synthetic 5'-fluorescein-labelled pre-miR-122 RNA site1 (unknown origin) assessed as heteroduplex formation at 4 uM measured after 48 hrs by non-denaturing PAGE analysis relative to control; type: nucleic-acid assay
[9] = Binding affinity to 5'-end FAM-tagged GACCAAACCCAATCTGGTT DNA (unknown origin) assessed as change in melting temperature at 1.5 uM measured after 5 mins by UV spectrophotometry
[10] = Binding affinity to 5'-end FAM-tagged GACCAATCCCAATCTGGTT DNA (unknown origin) assessed as change in melting temperature at 1.5 uM measured after 5 mins by UV spectrophotometry
[11] = Binding affinity to 5'-end FAM-tagged GACCAAGCCCAATCTGGTT DNA (unknown origin) assessed as change in melting temperature at 1.5 uM measured after 5 mins by UV spectrophotometry
[12] = Binding affinity to 5'-end FAM-tagged GACCAAGCCCAAUCUGGUU RNA (unknown origin) assessed as change in melting temperature at 1.5 uM measured after 5 mins by UV spectrophotometry
[13] = Binding affinity to 5'-end FAM-tagged GACCAACCCCAATCTGGTT DNA (unknown origin) assessed as change in melting temperature at 1.5 uM measured after 5 mins by UV spectrophotometry
[14] = Binding affinity to 5'-end FAM-tagged GACCAACCCCAAUCUGGUU RNA (unknown origin) assessed as change in melting temperature at 1.5 uM measured after 5 mins by UV spectrophotometry
[15] = Binding affinity to 5'-end FAM-tagged GACCAAACCCAAUCUGGUU RNA (unknown origin) assessed as change in melting temperature at 1.5 uM measured after 5 mins by UV spectrophotometry
[16] = Binding affinity to 5'-end FAM-tagged GACCAAUCCCAAUCUGGUU RNA (unknown origin) assessed as change in melting temperature at 1.5 uM measured after 5 mins by UV spectrophotometry
[17] = test system: Nucleic Acid; test: Binding affinity to 5'-end FAM-tagged GACACAAUCCCAAUCUGGUU RNA (unknown origin) assessed as induction of crosslinking by measuring heteroduplex formation at 4 uM measured after 24 hrs by bromophenol blue staining-based denaturing PAGE analysis relative to control; type: nucleic-acid assay
[18] = test system: Nucleic Acid; test: Binding affinity to 5'-end FAM-tagged GACCCAATCCCAATCTGGTT DNA (unknown origin) assessed as induction of crosslinking by measuring heteroduplex formation at 4 uM measured after 24 hrs by bromophenol blue staining-based denaturing PAGE analysis relative to control; type: nucleic-acid assay
[19] = test system: Nucleic Acid; test: Binding affinity to 5'-end FAM-tagged GACCCAAUCCCAAUCUGGUU RNA (unknown origin) assessed as induction of crosslinking by measuring heteroduplex formation at 4 uM measured after 24 hrs by bromophenol blue staining-based denaturing PAGE analysis relative to control; type: nucleic-acid assay
[20] = test system: Nucleic Acid; test: Binding affinity to 5'-end FAM-tagged GACGCAAUCCCAAUCUGGUU RNA (unknown origin) assessed as induction of crosslinking by measuring heteroduplex formation at 4 uM measured after 24 hrs by bromophenol blue staining-based denaturing PAGE analysis relative to control; type: nucleic-acid assay
[21] = test system: Nucleic Acid; test: Binding affinity to 5'-end FAM-tagged GACTCAATCCCAATCTGGTT DNA (unknown origin) assessed as induction of crosslinking by measuring heteroduplex formation at 4 uM measured after 24 hrs by bromophenol blue staining-based denaturing PAGE analysis relative to control; type: nucleic-acid assay
[22] = test system: Nucleic Acid; test: Binding affinity to 5'-end FAM-tagged GACACAATCCCAATCTGGTT DNA (unknown origin) assessed as induction of crosslinking by measuring heteroduplex formation at 4 uM measured after 24 hrs by bromophenol blue staining-based denaturing PAGE analysis relative to control; type: nucleic-acid assay
[23] = test system: unidentified; test: Binding affinity to 5'-end FAM-tagged GACUCAAUCCCAAUCUGGUU RNA (unknown origin) assessed as melting temperature at 1.5 uM measured after 5 mins by UV spectrophotometry (reference value: 82.2 degC)
[24] = test system: Nucleic Acid; test: Binding affinity to 5'-end FAM-tagged GACGCAATCCCAATCTGGTT DNA (unknown origin) assessed as induction of crosslinking by measuring heteroduplex formation at 4 uM measured after 24 hrs by bromophenol blue staining-based denaturing PAGE analysis relative to control; type: nucleic-acid assay
[25] = test system: Nucleic Acid; test: Binding affinity to 5'-end FAM-tagged GACUCAAUCCCAAUCUGGUU RNA (unknown origin) assessed as induction of crosslinking by measuring heteroduplex formation at 4 uM measured after 24 hrs by bromophenol blue staining-based denaturing PAGE analysis relative to control; type: nucleic-acid assay
[26] = Binding affinity to 5'-end FAM-tagged GACTCAATCCCAATCTGGTT DNA (unknown origin) assessed as crosslinked adduct formation by MALDI-TOF MS analysis
[27] = test system: unidentified; test: Binding affinity to 5'-end FAM-tagged GACTCAATCCCAATCTGGTT DNA (unknown origin) assessed as melting temperature at 1.5 uM measured after 5 mins by UV spectrophotometry (reference value: 79.2 degC)
[28] = test system: Nucleic Acid; test: Binding affinity to synthetic 5'-FAM-labelled pre-miR-122 RNA site2 (unknown origin) assessed as human dicer-mediated digestion of pre-miR-122 RNA preincubated with RNA for 2 days followed by dicer addition measured after 2 hrs by denaturing PAGE analysis; type: nucleic-acid assay
[29] = test system: Nucleic Acid; test: Binding affinity to synthetic 5'-FAM-labelled pre-miR-122 RNA site2 (unknown origin) assessed as inhibition of human dicer-mediated digestion of pre-miR-122 RNA preincubated with RNA for 2 days followed by dicer addition measured after 2 hrs by denaturing PAGE analysis relative to control; type: nucleic-acid assay; conditions: concentration not given here
[30] = test system: Nucleic Acid; test: Binding affinity to synthetic 5'-fluorescein-labelled pre-miR-122 RNA site2 (unknown origin) assessed as heteroduplex formation at 4 uM measured after 48 hrs by non-denaturing PAGE analysis relative to control; type: nucleic-acid assay
[31] = test system: Nucleic Acid; test: Binding affinity to synthetic 5'-FAM-labelled pre-miR-122 RNA site2 (unknown origin) assessed as heteroduplex formation at 4 uM measured after 2 hrs by denaturing PAGE analysis relative to control; type: nucleic-acid assay

C=Cc1nc(N)nc2c1ncn2CC(=O)N(CCN)CC(=O)NCCN(CC(=O)NCCN(CC(=O)NCCN(CC(=O)NCCN(CC(=O)NCCN(CC(=O)NCCN(CC(=O)NCCN(CC(=O)NCCN(CC(=O)NCCN(CC(=O)NCCN(CC(=O)NCCN(CC(=O)NCCN(CC(=O)N[C@@H](CCCNC(=N)N)C(=O)O)C(=O)Cn1ccc(N)nc1=O)C(=O)Cn1cnc2c(N)ncnc21)C(=O)Cn1ccc(N)nc1=O)C(=O)Cn1cnc2c(N)ncnc21)C(=O)Cn1cnc2c(=O)[nH]c(N)nc21)C(=O)Cn1cnc2c(N)ncnc21)C(=O)Cn1cc(C)c(=O)[nH]c1=O)C(=O)Cn1cc(C)c(=O)[nH]c1=O)C(=O)Cn1cc(C)c(=O)[nH]c1=O)C(=O)Cn1cnc2c(=O)[nH]c(N)nc21)C(=O)Cn1cnc2c(N)ncnc21)C(=O)Cn1cc(C)c(=O)[nH]c1=O
inhibition [1]: 76% | Activity [2]: 72% | Activity [3]: 85% | Activity [4]: 24%

C=Cc1nc(N)nc2c1ncn2CC(=O)N(CCN)CC(=O)NCCN(CC(=O)NCCN(CC(=O)NCCN(CC(=O)NCCN(CC(=O)NCCN(CC(=O)NCCN(CC(=O)NCCN(CC(=O)NCCN(CC(=O)NCCN(CC(=O)NCCN(CC(=O)NCCN(CC(=O)NCCN(CC(=O)N[C@@H](CCCNC(=N)N)C(=O)O)C(=O)Cn1cnc2c(N)ncnc21)C(=O)Cn1cc(C)c(=O)[nH]c1=O)C(=O)Cn1cnc2c(N)ncnc21)C(=O)Cn1cnc2c(=O)[nH]c(N)nc21)C(=O)Cn1cc(C)c(=O)[nH]c1=O)C(=O)Cn1cc(C)c(=O)[nH]c1=O)C(=O)Cn1cc(C)c(=O)[nH]c1=O)C(=O)Cn1cnc2c(=O)[nH]c(N)nc21)C(=O)Cn1ccc(N)nc1=O)C(=O)Cn1cnc2c(=O)[nH]c(N)nc21)C(=O)Cn1cnc2c(=O)[nH]c(N)nc21)C(=O)Cn1cc(C)c(=O)[nH]c1=O
Activity [5]: 90% | inhibition [6]: 10% | Activity [7]: 8% | Activity [8]: 10%

CSCCc1nc(N)nc2c1ncn2CC(=O)N(CCNC(=O)CN(CCNC(=O)CN(CCNC(=O)CN(CCNC(C)=O)C(=O)Cn1cnc2c(=O)[nH]c(N)nc21)C(=O)Cn1cc(C)c(=O)[nH]c1=O)C(=O)Cn1cc(C)c(=O)[nH]c1=O)CC(=O)NCCN(CC(=O)NCCN(CC(=O)NCCN(CC(=O)NCCN(CC(=O)NCCN(CC(=O)NCCN(CC(=O)NCCN(CC(=O)N[C@@H](CCCNC(=N)N)C(=O)N[C@@H](CCCNC(=N)N)C(=O)NCC(N)=O)C(=O)Cn1cnc2c(=O)[nH]c(N)nc21)C(=O)Cn1cnc2c(N)ncnc21)C(=O)Cn1cc(C)c(=O)[nH]c1=O)C(=O)Cn1cc(C)c(=O)[nH]c1=O)C(=O)Cn1cnc2c(=O)[nH]c(N)nc21)C(=O)Cn1cnc2c(=O)[nH]c(N)nc21)C(=O)Cn1cnc2c(=O)[nH]c(N)nc21
ΔTm [9]: -10.6 °C | ΔTm [10]: -9.9 °C | ΔTm [11]: -11 °C | ΔTm [12]: -11 °C | ΔTm [13]: -10.3 °C | ΔTm [14]: -6.1 °C | ΔTm [15]: -10.1 °C | ΔTm [16]: -5.9 °C

C=Cc1nc(N)nc2c1ncn2CC(=O)N(CCNC(C)=O)CC(=O)NCCN(CC(=O)NCCN(CC(=O)NCCN(CC(=O)NCCN(CC(=O)NCCN(CC(=O)NCCN(CC(=O)NCCN(CC(=O)NCCN(CC(=O)NCCN(CC(=O)NCCN(CC(=O)NCCN(CC(=O)N[C@@H](CCCNC(=N)N)C(=O)N[C@@H](CCCNC(=N)N)C(=O)NCC(N)=O)C(=O)Cn1cnc2c(=O)[nH]c(N)nc21)C(=O)Cn1cnc2c(N)ncnc21)C(=O)Cn1cc(C)c(=O)[nH]c1=O)C(=O)Cn1cc(C)c(=O)[nH]c1=O)C(=O)Cn1cnc2c(=O)[nH]c(N)nc21)C(=O)Cn1cnc2c(=O)[nH]c(N)nc21)C(=O)Cn1cnc2c(=O)[nH]c(N)nc21)C(=O)Cn1cnc2c(N)ncnc21)C(=O)Cn1cc(C)c(=O)[nH]c1=O)C(=O)Cn1cc(C)c(=O)[nH]c1=O)C(=O)Cn1cnc2c(=O)[nH]c(N)nc21
Activity [17]: 0% | Activity [18]: 2% | Activity [19]: 2% | Activity [20]: 2% | Activity [21]: 52% | Activity [22]: 1% | Tm [23]: 84.5 °C | Activity [24]: 3% | Activity [25]: 62% | Activity [26]: Active | Tm [27]: 80.3 °C

C=Cc1nc(N)nc2c1ncn2CC(=O)N(CCN)CC(=O)NCCN(CC(=O)NCCN(CC(=O)NCCN(CC(=O)NCCN(CC(=O)NCCN(CC(=O)NCCN(CC(=O)NCCN(CC(=O)NCCN(CC(=O)NCCN(CC(=O)NCCN(CC(=O)NCCN(CC(=O)NCCN(CC(=O)N[C@@H](CCCNC(=N)N)C(=O)O)C(=O)Cn1ccc(N)nc1=O)C(=O)Cn1ccc(N)nc1=O)C(=O)Cn1cc(C)c(=O)[nH]c1=O)C(=O)Cn1ccc(N)nc1=O)C(=O)Cn1cnc2c(N)ncnc21)C(=O)Cn1ccc(N)nc1=O)C(=O)Cn1cnc2c(N)ncnc21)C(=O)Cn1ccc(N)nc1=O)C(=O)Cn1cc(C)c(=O)[nH]c1=O)C(=O)Cn1cnc2c(=O)[nH]c(N)nc21)C(=O)Cn1cc(C)c(=O)[nH]c1=O)C(=O)Cn1cc(C)c(=O)[nH]c1=O
Activity [28]: 59% | inhibition [29]: 41% | Activity [30]: 41% | Activity [31]: 15%
